Earlier results, collected in US9062031B2, “Method of preparing polymorphic pure form A of bazedoxifene acetate” (SANDOZ AG, priority 2010, dated 2015).

Assays:
[1] = solvent or solvent mixture, for example ethylacetate and ethanol
[2] = aqueous and organic solvent systems

Conversion to form B upon contact with solvent [1]: can easily convert to form B
Solubility compared with form B [2]: higher solubility than form B
Compound: Cc1c(-c2ccc(O)cc2)n(Cc2ccc(OCCN3CCCCCC3)cc2)c2ccc(O)cc12 [Bazedoxifene x acetate form A, 1-[[4-[2-(Hexahydro-1H-azepin-1-Dethoxy]phenyl]methyl]-2-(4-hydroxyphenyl)-3-methyl-1H-indol-5-ol monoacetate]
